As usually defined, the IC50 is the midpoint of a concentration-inhibition curve. High values mean weaker potency, low ones greater potency.

Experiment [1] deals with Bacillus cereus. The experiment can be described thus: Microtiter dilution MIC, Bacillus cereus. Type of experiment: cell-based. The following applies: Mueller-Hinton broth, 37° C., 16-24 hours, read-out: Minimal Inhibitory Concentration. How it is done: (§1) The compounds of the present invention and their pharmaceutically acceptable salts are useful as antimicrobial agents. The antimicrobial activity of the representative examples of compounds in accordance with the present invention against five species of gram-negative bacteria, seven species of gram-positive bacteria, four species of yeast, and two species of fungi were determined using the microtiter dilution technique. This method is described by T. B. Conrath, "Handbook of Microtiter Procedures," Dynatech Corp., Cambridge, Mass., USA (1972); and T. L. Gavan et al, "Microdilution Test Procedures," in Manual of Clinical Microbiology, E. H. Lennette, Ed., American Soc. for Microbiol., Washington, D.C., U.S.A. (1980).
(§2) Each agent is suspended in a nonaqueous solvent for several minutes to sterilize the compound or, if the compound is completely soluble in water, the aqueous solution is sterilized by passage through a 0.2-0.45 micrometer membrane filter.
(§3) Each well of a sterile 96-well microdilution tray is filled under aseptic conditions with 0.1 ml of Mueller-Hinton broth (for antibacterial tests), or yeast extract-peptone-dextrose or buffered supplemented yeast nitrogen base (for tests with yeasts or fungi).
(§4) […] of the test compound solution is added to each of the eight wells in the first row of the tray. A microdilutor apparatus is used to simultaneously mix the contents of these wells and to transfer aliquots to each succeeding row of cells to obtain a range of serially diluted solutions. The last row of wells is untreated and serves as a control.
(§5) Each well containing broth and test compound is inoculated with about ten microliters of inoculum of the test microorganism. One well in the last row of wells (which is free of test compound) is not inoculated and is used as a sterility control The trays are sealed and incubated at 37° C. for 16-24 hours (for bacteria) or at 28° C. for 36-48 hours (yeasts or fungi). During incubation, the inoculated medium is shaken at 100-140 rpm to increase contact between the microorganism cells and test compounds.
(§6) After the incubation period, each plate is evaluated by determining the lowest concentration of test compound required to inhibit the growth of the microorganism and recorded as a minimal inhibitory concentration (MIC).

The test system of experiment [2] is P388 leukemia cell line. The experiment can be described thus: In vivo antineoplastic activity against transplanted P388 leukemia in mice. The following applies: Days 1-9. How it is done: The in vivo antineoplastic activity of representative compounds of the present invention against the transplanted P388 leukemia cell line in mice was determined in accordance with the protocol given in Geran et al, cited above. The mice were infected intraperitoneally on Day 0 and then administered the indicated doses of the test compounds on Days 1-9.

For experiment [3], the system named is Mucor paraciticus. The experiment can be described thus: Microtiter dilution MIC, Mucor paraciticus. The following applies: yeasts or fungi, 28° C., 36-48 hours, read-out: Minimal Inhibitory Concentration. Type of experiment: cell-based. How it is done: as §1, §2, §3, §4, §5, §6
For experiment [4], the system named is Staphylococcus aureus. The experiment is described as follows: Microtiter dilution MIC, Staphylococcus aureus. Particulars: Mueller-Hinton broth, 37° C., 16-24 hours, read-out: Minimal Inhibitory Concentration. It is filed as cell-based. How it is done: as §1, §2, §3, §4, §5, §6
Experiment [5] relates to Micrococcus luteus. The experiment can be described thus: Microtiter dilution MIC, Micrococcus luteus. It is filed as cell-based. Particulars: Mueller-Hinton broth, 37° C., 16-24 hours, read-out: Minimal Inhibitory Concentration. How it is done: as §1, §2, §3, §4, §5, §6
Experiment [6] deals with Branhamella catarrhalis. The experiment is described as follows: Microtiter dilution MIC, Branhamella catarrhalis. Type of experiment: cell-based. The following applies: Moraxella catarrhalis; Mueller-Hinton broth, 37° C., 16-24 hours; read-out: Minimal Inhibitory Concentration. How it is done:
as §1, §2, §3, §4, §5, §6

The subject of experiment [7] is L1210 murine leukemia cell line. The experiment can be described thus: Cytotoxic activity against L1210 murine leukemia in vitro. Type of experiment: cell-based. The following applies: Mus musculus, 50% inhibition of growth, duplicate tests. How it is done: The antineoplastic activities of representative compounds of the present invention against the L1210 murine leukemia cell line in vitro were determined using the methods detailed by R. I. Geran et al, "Protocols for Screening Chemical Agents and Natural Products Against Animal Tumors and Other Biological Systems," 3rd Edition, Cancer Chemotherapy Reports, Part 3, Vol. 3, pages 1-87 (1972) which is incorporated herein by reference.
The IC50 values are the concentration of compound required to produce 50% inhibition of growth of the cell line.

Experiment [8] relates to Alcaligenes viscolactis. The experiment can be described thus: Microtiter dilution MIC, Alcaligenes viscolactis. Type of experiment: cell-based. Particulars: Mueller-Hinton broth, 37° C., 16-24 hours, read-out: Minimal Inhibitory Concentration. How it is done:
as §1, §2, §3, §4, §5, §6

The test system of experiment [9] is Saccharomyces cerevisiae. The experiment is described as follows: Microtiter dilution MIC, Saccharomyces cerevisiae. Type of experiment: cell-based. The following applies: yeasts or fungi, 28° C., 36-48 hours, read-out: Minimal Inhibitory Concentration. How it is done:
as §1, §2, §3, §4, §5, §6

The test system of experiment [10] is Bacillus megaterium. The experiment can be described thus: Microtiter dilution MIC, Bacillus megaterium. Type of experiment: cell-based. The following applies: Priestia megaterium; Mueller-Hinton broth, 37° C., 16-24 hours; read-out: Minimal Inhibitory Concentration. How it is done:
as §1, §2, §3, §4, §5, §6

The subject of experiment [11] is Schizosaccharomyces pombe. The experiment is described as follows: Microtiter dilution MIC, Schizosaccharomyces pombe. Type of experiment: cell-based. The following applies: yeasts or fungi, 28° C., 36-48 hours, read-out: Minimal Inhibitory Concentration. How it is done: as §1, §2, §3, §4, §5, §6
The test system of experiment [12] is Streptococcus faecalis. The experiment is described as follows: Microtiter dilution MIC, Streptococcus faecalis. Type of experiment: cell-based. Particulars: Enterococcus faecalis; Mueller-Hinton broth, 37° C., 16-24 hours; read-out: Minimal Inhibitory Concentration. How it is done: as §1, §2, §3, §4, §5, §6
The subject of experiment [13] is Rhodotorula aurantiaca. The experiment can be described thus: Microtiter dilution MIC, Rhodotorula aurantiaca. It is filed as cell-based. The following applies: Buckleyzyma aurantiaca; yeasts or fungi, 28° C., 36-48 hours; read-out: Minimal Inhibitory Concentration. How it is done:
as §1, §2, §3, §4, §5, §6

Experiment [14] relates to Streptococcus pyogenes. The experiment can be described thus: Microtiter dilution MIC, Streptococcus pyogenes. It is filed as cell-based. Particulars: Mueller-Hinton broth, 37° C., 16-24 hours, read-out: Minimal Inhibitory Concentration. How it is done:
as §1, §2, §3, §4, §5, §6

Experiment [15] deals with Pseudomonas aeruginosa. The experiment is described as follows: Microtiter dilution MIC, Pseudomonas aeruginosa. Type of experiment: cell-based. Particulars: Mueller-Hinton broth, 37° C., 16-24 hours, read-out: Minimal Inhibitory Concentration. How it is done: as §1, §2, §3, §4, §5, §6
For experiment [16], the system named is Salmonella typhimurium. The experiment can be described thus: Microtiter dilution MIC, Salmonella typhimurium. It is filed as cell-based. Particulars: Salmonella enterica, Mueller-Hinton broth, 37° C., 16-24 hours, read-out: Minimal Inhibitory Concentration. How it is done: as §1, §2, §3, §4, §5, §6
Experiment [17] concerns Streptococcus pneumoniae. The experiment is described as follows: Microtiter dilution MIC, Streptococcus pneumoniae. It is filed as cell-based. Particulars: Mueller-Hinton broth, 37° C., 16-24 hours, read-out: Minimal Inhibitory Concentration. How it is done: as §1, §2, §3, §4, §5, §6
Experiment [18] deals with Torulopsis albida. The experiment can be described thus: Microtiter dilution MIC, Torulopsis albida. It is filed as cell-based. The following applies: Naganishia albida; yeasts or fungi, 28° C., 36-48 hours; read-out: Minimal Inhibitory Concentration. How it is done:
as §1, §2, §3, §4, §5, §6

Experiment [19] concerns Rhizopus japonicus. The experiment can be described thus: Microtiter dilution MIC, Rhizopus japonicus. It is filed as cell-based. The following applies: yeasts or fungi, 28° C., 36-48 hours, read-out: Minimal Inhibitory Concentration. How it is done: as §1, §2, §3, §4, §5, §6
Experiment [20] concerns Escherichia coli (PD-04863). The experiment can be described thus: Microtiter dilution MIC, Escherichia coli (PD-04863). It is filed as cell-based. Particulars: Mueller-Hinton broth, 37° C., 16-24 hours, read-out: Minimal Inhibitory Concentration. How it is done:
as §1, §2, §3, §4, §5, §6

Converted amounts (≈) assume the structure as drawn.

Turning to `Cc1c(O)c(C=O)c2nc3c(O)ccc(C(=O)NCCN(C)C)c3nc2c1O` [Example 8, N-[2-(dimethylamino)ethyl]-6-formyl-4,7,9-trihydroxy-8-methyl-1-phenazinecarboxamide], the MIC was 37 µg/mL (≈ 96.3 µM) in [1]; above 1000 µg/mL in [3]; 1000 µg/mL (≈ 2600 µM) in [4]; 1000 µg/mL (≈ 2600 µM) in experiment [5]; 4.1 µg/mL (≈ 10.7 µM) in experiment [6]; 4.1 µg/mL (≈ 10.7 µM) in [8]. The MIC in [9] was above 1000 µg/mL; in [10], 1000 µg/mL (≈ 2600 µM); in [11] it was above 1000 µg/mL; in [12], above 1000 µg/mL; in [13] it was above 1000 µg/mL; in [14], 1000 µg/mL (≈ 2600 µM). Also, the MIC in experiment [15] was above 1000 µg/mL; in experiment [16], 111 µg/mL (≈ 289 µM); in [17] it was 1000 µg/mL (≈ 2600 µM); in [18], above 1000 µg/mL; in experiment [19], above 1000 µg/mL; in experiment [20], 1000 µg/mL (≈ 2600 µM). In addition, the “% T/C” value in experiment [2] (3.12 mg/kg/injection) worked out at 113%; in [2] (6.25 mg/kg/injection) it was 129%; in experiment [2] (12.5 mg/kg/injection), 146%; in experiment [2] (25 mg/kg/injection), 205%. The molecule also had an IC50 in experiment [7] of 0.24 µg/mL (≈ 0.624 µM).

For `Cc1c(O)c(C=O)c2nc3c(O)ccc(C(=O)NCCCN(C)C)c3nc2c1O` [Example 18, N-[3-(dimethylamino)propyl]-6-formyl-4,7,9-trihydroxy-8-methyl-1-phenazinecarboxamide], the MIC stood at 12.3 µg/mL (≈ 30.9 µM) in experiment [1]; 37 µg/mL (≈ 92.9 µM) in experiment [3]; 37 µg/mL (≈ 92.9 µM) in experiment [4]; 12.3 µg/mL (≈ 30.9 µM) in experiment [5]; 12.3 µg/mL (≈ 30.9 µM) in [6]; 12.3 µg/mL (≈ 30.9 µM) in experiment [8]. Also, the MIC in experiment [9] came to 111 µg/mL (≈ 279 µM); in experiment [10] it was 37 µg/mL (≈ 92.9 µM); in [11], 37 µg/mL (≈ 92.9 µM); in experiment [12], 37 µg/mL (≈ 92.9 µM); in experiment [13], 37 µg/mL (≈ 92.9 µM); in experiment [14], 37 µg/mL (≈ 92.9 µM). For the same molecule, the MIC was above 1000 µg/mL in experiment [15]; 111 µg/mL (≈ 279 µM) in experiment [16]; 37 µg/mL (≈ 92.9 µM) in experiment [17]; 37 µg/mL (≈ 92.9 µM) in experiment [18]; 37 µg/mL (≈ 92.9 µM) in experiment [19]; 37 µg/mL (≈ 92.9 µM) in experiment [20]. Besides, the “% T/C” value is given as 106% in [2] (25 mg/kg/injection), 123% in [2] (50 mg/kg/injection) and 132% in experiment [2] (100 mg/kg/injection). The same molecule displayed an IC50 in experiment [7] of 0.24 µg/mL (≈ 0.602 µM).

Consider `Cc1c(O)c(C=NCCN(C)C)c2nc3c(O)ccc(C(=O)NCCN(C)C)c3nc2c1O` [Example 7, N-[2-(dimethylamino)ethyl]-6-[[[2-(dimethylamino)ethyl]imino]methyl]-4,7,9-trihydroxy-8-methyl-1-phenazinecarboxamide], for which the MIC worked out at 111 µg/mL (≈ 244 µM) in [1]; 333 µg/mL (≈ 733 µM) in experiment [3]; 333 µg/mL (≈ 733 µM) in experiment [4]; 37 µg/mL (≈ 81.4 µM) in experiment [5]; 12.3 µg/mL (≈ 27.1 µM) in experiment [6]; 4.1 µg/mL (≈ 9.02 µM) in experiment [8]. The MIC is 1000 µg/mL (≈ 2200 µM) in experiment [9]; 333 µg/mL (≈ 733 µM) in [10]; 111 µg/mL (≈ 244 µM) in [11]; 1000 µg/mL (≈ 2200 µM) in experiment [12]; 111 µg/mL (≈ 244 µM) in [13]; 111 µg/mL (≈ 244 µM) in [14]. The MIC was below 1000 µg/mL in experiment [15]; 333 µg/mL (≈ 733 µM) in [16]; 37 µg/mL (≈ 81.4 µM) in [17]; 1000 µg/mL (≈ 2200 µM) in experiment [18]; 333 µg/mL (≈ 733 µM) in experiment [19]; 111 µg/mL (≈ 244 µM) in [20]. In addition, the “% T/C” value is reported as 126% in experiment [2] (25 mg/kg/injection), 140% in [2] (50 mg/kg/injection), 152% in [2] (100 mg/kg/injection) and 166% in [2] (200 mg/kg/injection). The same molecule came in with an IC50 in experiment [7] of 0.63 µg/mL (≈ 1.39 µM).

For the origin of these results see patent US4738929A, “Purified culture of streptomyces galanosa” (Warner-Lambert Company, priority 1986, dated 1988).
